We go through three compounds from patent US20240300936A1 (priority 2021, published 2024).

SMILES strings stand for the structures.

For this experiment, the system named is HELA cells. As to the kind of experiment: HELA cell proliferation assay (CellTitre-Glo, 6 days). The experiment is classed as cell-based. To be noted: Homo sapiens, 144 h; HELA cells, 6 days treatment, CellTitre-Glo; read-out: HeLa pIC50 (converted).
On to `Cn1ncc2ccc(-c3nc(N)nc(NC(C)(C)c4ccn(C(F)F)n4)n3)cc21` [Example 101, N2-[1-[1-(difluoromethyl)pyrazol-3-yl]-1-methyl-ethyl]-6-(1-methylindazol-6-yl)-1,3,5-triazine-2,4-diamine], for which the IC50 was 257 nM.

Regarding `CC(C)(Nc1nc(N)nc(-c2ccc3cn[nH]c3c2F)n1)c1ccn(C(F)F)n1` [Example 102, N2-[1-[1-(difluoromethyl)pyrazol-3-yl]-1-methyl-ethyl]-6-(7-fluoro-1H-indazol-6-yl)-1,3,5-triazine-2,4-diamine], the IC50 is 295 nM. On to `CC(C)(Nc1nc(N)nc(-c2cc(F)c3cn[nH]c3c2)n1)c1ccn(C(F)F)n1` [Example 104, N2-[1-[1-(difluoromethyl)pyrazol-3-yl]-1-methyl-ethyl]-6-(4-fluoro-1H-indazol-6-yl)-1,3,5-triazine-2,4-diamine], for which the IC50 was 219 nM.
